Molecules are shown by their SMILES.

One series has as its target ROC1-CUL3 (Homo sapiens (Human), UniProt Q13618). As to the kind of experiment: Gel-based di-Ub synthesis. The class given is biochemical. The note with it: up to 150 μM.
The next series has as its target ROC1-CUL4A (Homo sapiens (Human), UniProt Q13619). As to the kind of experiment: 32P-Ub chain elongation by ROC1-CUL4A. The class given is biochemical. Details: concentration or dose not given beside the values. The note with it: relative to KH-4-43. The method, then:
The reaction was incubated for 5 min at 37° C. […] The reaction was incubated for 5 min at room temperature. In the second step (chase), the completed Cdc34b-Ub thiol ester reaction mixture was combined with one third of the completed mono-ubiquitination mixture. The final volume was adjusted to 10 μl with a mix that contained 50 mM Tris-HCl (pH 7.4), 0.5 mM DTT, 0.1 mg/ml of BSA, 5 mM MgCl2, and 2 mM ATP. Compounds were added where indicated. The chase reaction was incubated for 10 min at 37° C. The reaction products were separated by 4-20% SDS-polyacrylamide gel electrophoresis. The reaction scheme was identical to the one described above for FIGS. 12A-B. […] The reaction products, separated by SDS-PAGE, were visualized and analyzed by phospho-imaging using Typhoon 9500 scanner.

The nature of series [1]: Mouse tolerance/toxicity study.
For a further series, the system named is MV4-11. As to the kind of experiment: Apoptosis, Annexin V flow cytometry. The class given is cell-based. The note with it: Homo sapiens; MV4-11, AML. Summed up: (§1)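 5×10^4 cells were seeded 24 h before treatment, then cultured with compound for 48 h. Pelleted cells were washed in Annexin V binding buffer (HEPES pH 7.4, with CaCl2) and stained in the dark with Annexin V-FITC (2 μg/ml) for 5 min. Apoptosis was read by flow cytometry.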
For orientation: A flow cytometer gives signals particle by particle.

The next series has as its system MOLT-4. As to the kind of experiment: Apoptosis, Annexin V flow cytometry. The note with it: Homo sapiens; MOLT-4, ALL. It is filed as cell-based. An outline of the steps:
as §1

A further series has as its system ML-2. Briefly: Apoptosis, Annexin V flow cytometry. It is filed as cell-based. The note with it: Homo sapiens; ML-2, AML. An outline of the steps: as §1
The next series has as its system HCT116. Briefly: Apoptosis, Annexin V flow cytometry. The note with it: Homo sapiens, HCT-116; HCT116, Colon. It is filed as cell-based. An outline of the steps:
as §1

For the next series, the system named is H1299. As to the kind of experiment: Apoptosis, Annexin V flow cytometry. The note with it: Homo sapiens, NCI-H1299; H1299, Lung. The class given is cell-based. Summed up:
as §1

In a further series the test system is MDA-MB-231. As to the kind of experiment: Apoptosis, Annexin V flow cytometry. The note with it: Homo sapiens; MDA-MB-231, Breast. It is filed as cell-based. Summed up:
as §1

The next series has as its system K562. Briefly: Apoptosis, Annexin V flow cytometry. It is filed as cell-based. The note with it: Homo sapiens; K562, CML. Summed up: as §1
The subject of the next series is U2OS. Briefly: Apoptosis, Annexin V flow cytometry. The class given is cell-based. The note with it: Homo sapiens, Bone. Summed up: as §1
A further series deals with NB-4. As to the kind of experiment: Apoptosis, Annexin V flow cytometry. It is filed as cell-based. The note with it: Homo sapiens; NB-4, AML. An outline of the steps: as §1
Another series concerns THP-1. Briefly: Apoptosis, Annexin V flow cytometry. The class given is cell-based. The note with it: Homo sapiens, THP-1, THP-1, AML. Summed up: as §1
The target of the next series is ROC1-CUL2 (Homo sapiens (Human), UniProt Q13617). Briefly: Gel-based di-Ub synthesis. The class given is biochemical. The note with it: up to 150 μM.
Series [2] in a line: Liver microsome stability. It is filed as in vitro ADME. The procedure:
ADME studies on compounds #33-11 and KH-4-43 for “absorption, distribution, metabolism, and excretion” were carried out at CRO, BioDuro. Kinetic solubility, plasma and microsome stability in rat, mouse and human, as well as Caco-2 Permeability were examined.
On the technique in general: Liver microsomes are vesicles of endoplasmic reticulum, rich in cytochrome P450 enzymes.

Another series has as its target CRL1/SCF (Homo sapiens, UniProt Q13616).
A further series has as its target E3 (CUL1) (Homo sapiens (Human), UniProt Q13616). Briefly: E3 (CUL1) inhibition (Table 1). It is filed as biochemical. The method, then:
The reaction mixture (15 μl) was assembled onto a 384-well microtiter plate. […] ATP (0.66 mM) was then added to the mix followed by a brief centrifugation to settle down the mixture. The resulting plate was incubated at 30° C. in the Synergy-H1 reader and the fluorescence signal was monitored. Ubiquitination was quantified based on the ratio of acceptor:donor fluorescence (excitation 515 nm; donor emission 570 nm, acceptor emission 670 nm).

A further series deals with tumor cell lines. Briefly: Cytotoxicity in a subset of tumor cell lines. It is filed as cell-based. The method, then:
Cells (5×10^4) were seeded 24 hours before compound treatment. Compound was added to the culture media and cells were cultured with the compound for 48 hours. The treated cells were then transferred into 5 ml flow cytometry tubes and the well was washed once with PBS to collect any remaining cells. The cells were then pelleted at 500×g for 5 min with a Beckman CS-6KR centrifuge at 4° C. After removal of supernatant, the cells pellet was washed with Annexin V binding buffer (10 mM Hepes-NaOH, pH 7.4, 150 mM NaCl, 5 mM KCl, 1 mM MgCl2, and 1.8 mM CaCl2). Cells were pelleted once again and incubated in the dark with Annexin V-FITC (2 μg/ml) in binding buffer for 5 min then analyzed using LSRFortessa flow cytometer (BD).
For cell viability assay, 10,000 cells (per well) were seeded in 96 well plates in 100 microliters of media and incubated overnight. Serial dilutions of compounds tested were then added to wells in triplicate. The cells were incubated for an additional 48 hours. […] The luminescence of each well was then read using a Synergy multi-mode plate reader (BioTek). For determining relative luminescence, the background (average reading of wells containing only media and CellTiter-Glo reagent, no cells) was first subtracted from the reading of each sample. […] Then EC50 was determined using the four parameter logistics regression standard curve.

The next series deals with E3 (CUL4) (Homo sapiens (Human), UniProt Q13619). Briefly: E3 (CUL4) inhibition (Table 1). The class given is biochemical. An outline of the steps: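 Two-step assay: Cdc34b-Ub thiol ester formation, then chase with ROC1-cullin mono-ubiquitination mix for 10 min at 37° C in 50 mM Tris-HCl pH 7.4, 0.5 mM DTT, 0.1 mg/ml BSA, 5 mM MgCl2, 2 mM ATP with compounds. 32P-Ub chain products resolved by SDS-PAGE and quantified by phospho-imaging.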

In a further series the test system is MV4-11 cells. Briefly: Cell viability assay (CellTiter-Glo). It is filed as cell-based. The note with it: Homo sapiens; MV4-11, 48 hours. The procedure: The ability of #33-11 to induce apoptosis was measured by Annexin V flow cytometry (FIG. 1A). EC50/EC90 for each cell line are indicated. […] Mouse pancreatic cancer cell lines K8484 and DT8082 were isolated from the KPC mice (Olive et al., “Inhibition of Hedgehog Signaling Enhances Delivery of Chemotherapy in a Mouse Model of Pancreatic Cancer,” Science 324(5933):1457-1461 (2009), which is hereby incorporated by reference in its entirety), the rest (34 in total) are all human cancer cell lines. Washout: MV4-11 cells at 10^5 cells/ml were treated with compound at concentrations as indicated (FIG. 1C). At specified hours post compound treatment, the cells were washed once with fresh complete media without compound and allowed to grow for additional 48 hours followed by viability test as in FIG. 1B.
For cell viability assay, 10,000 cells (per well) were seeded in 96 well plates in 100 microliters of media and incubated overnight. Serial dilutions of compounds tested were then added to wells in triplicate. […] The luminescence of each well was then read using a Synergy multi-mode plate reader (BioTek). For determining relative luminescence, the background (average reading of wells containing only media and CellTiter-Glo reagent, no cells) was first subtracted from the reading of each sample. […] Then EC50 was determined using the four parameter logistics regression standard curve.

Sequence of E3 (CUL1) (Q13616 whole entry): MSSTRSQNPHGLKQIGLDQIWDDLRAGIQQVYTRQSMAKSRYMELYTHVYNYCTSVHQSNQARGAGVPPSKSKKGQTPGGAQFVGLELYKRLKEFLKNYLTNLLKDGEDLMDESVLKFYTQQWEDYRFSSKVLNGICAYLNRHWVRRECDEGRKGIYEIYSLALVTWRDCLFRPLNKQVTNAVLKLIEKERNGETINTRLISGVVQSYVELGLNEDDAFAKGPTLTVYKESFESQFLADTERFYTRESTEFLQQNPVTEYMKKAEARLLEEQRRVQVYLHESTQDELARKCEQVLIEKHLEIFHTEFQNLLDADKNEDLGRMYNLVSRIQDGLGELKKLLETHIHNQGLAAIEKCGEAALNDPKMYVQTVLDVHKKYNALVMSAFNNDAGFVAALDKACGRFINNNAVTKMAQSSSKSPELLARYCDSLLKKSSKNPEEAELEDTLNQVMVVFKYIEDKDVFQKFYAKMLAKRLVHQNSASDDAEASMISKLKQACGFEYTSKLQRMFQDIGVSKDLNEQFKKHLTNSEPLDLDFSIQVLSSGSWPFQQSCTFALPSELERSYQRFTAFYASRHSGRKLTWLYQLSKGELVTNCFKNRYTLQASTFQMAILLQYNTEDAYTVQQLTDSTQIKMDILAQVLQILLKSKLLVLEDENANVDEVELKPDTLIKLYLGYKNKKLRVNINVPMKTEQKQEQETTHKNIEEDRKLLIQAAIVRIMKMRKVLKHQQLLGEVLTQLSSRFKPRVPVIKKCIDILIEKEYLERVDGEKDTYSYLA
Sequence of E3 (CUL1) (P62877 whole entry partner): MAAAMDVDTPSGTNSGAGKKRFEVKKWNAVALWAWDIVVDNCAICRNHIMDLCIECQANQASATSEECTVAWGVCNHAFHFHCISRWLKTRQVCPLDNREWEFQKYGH
Sequence of E3 (CUL4) (Q13619 whole entry): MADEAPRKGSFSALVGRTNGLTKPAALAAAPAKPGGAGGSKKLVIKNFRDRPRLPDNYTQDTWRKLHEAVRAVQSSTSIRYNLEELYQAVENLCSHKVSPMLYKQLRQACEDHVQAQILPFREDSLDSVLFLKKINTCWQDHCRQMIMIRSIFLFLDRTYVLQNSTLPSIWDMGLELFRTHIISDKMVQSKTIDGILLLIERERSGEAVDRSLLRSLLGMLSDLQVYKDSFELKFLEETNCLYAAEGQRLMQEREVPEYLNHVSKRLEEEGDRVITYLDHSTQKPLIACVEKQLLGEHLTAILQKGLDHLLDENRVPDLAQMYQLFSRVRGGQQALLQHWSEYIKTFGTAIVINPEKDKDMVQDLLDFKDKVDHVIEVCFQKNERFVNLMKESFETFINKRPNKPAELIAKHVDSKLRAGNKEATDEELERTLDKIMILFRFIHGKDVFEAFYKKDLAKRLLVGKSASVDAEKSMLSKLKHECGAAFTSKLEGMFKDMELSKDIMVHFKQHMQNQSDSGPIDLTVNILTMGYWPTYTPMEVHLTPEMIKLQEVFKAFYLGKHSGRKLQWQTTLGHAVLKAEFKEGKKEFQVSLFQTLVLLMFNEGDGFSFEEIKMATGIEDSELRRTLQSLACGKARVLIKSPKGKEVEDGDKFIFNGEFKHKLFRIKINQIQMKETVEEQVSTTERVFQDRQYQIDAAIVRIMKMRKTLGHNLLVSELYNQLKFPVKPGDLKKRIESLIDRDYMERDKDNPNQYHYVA
Sequence of E3 (CUL4) (P62877 whole entry partner): as the sequence (P62877 whole entry partner) above
Sequence of ROC1-CUL2 (Q13617 whole entry): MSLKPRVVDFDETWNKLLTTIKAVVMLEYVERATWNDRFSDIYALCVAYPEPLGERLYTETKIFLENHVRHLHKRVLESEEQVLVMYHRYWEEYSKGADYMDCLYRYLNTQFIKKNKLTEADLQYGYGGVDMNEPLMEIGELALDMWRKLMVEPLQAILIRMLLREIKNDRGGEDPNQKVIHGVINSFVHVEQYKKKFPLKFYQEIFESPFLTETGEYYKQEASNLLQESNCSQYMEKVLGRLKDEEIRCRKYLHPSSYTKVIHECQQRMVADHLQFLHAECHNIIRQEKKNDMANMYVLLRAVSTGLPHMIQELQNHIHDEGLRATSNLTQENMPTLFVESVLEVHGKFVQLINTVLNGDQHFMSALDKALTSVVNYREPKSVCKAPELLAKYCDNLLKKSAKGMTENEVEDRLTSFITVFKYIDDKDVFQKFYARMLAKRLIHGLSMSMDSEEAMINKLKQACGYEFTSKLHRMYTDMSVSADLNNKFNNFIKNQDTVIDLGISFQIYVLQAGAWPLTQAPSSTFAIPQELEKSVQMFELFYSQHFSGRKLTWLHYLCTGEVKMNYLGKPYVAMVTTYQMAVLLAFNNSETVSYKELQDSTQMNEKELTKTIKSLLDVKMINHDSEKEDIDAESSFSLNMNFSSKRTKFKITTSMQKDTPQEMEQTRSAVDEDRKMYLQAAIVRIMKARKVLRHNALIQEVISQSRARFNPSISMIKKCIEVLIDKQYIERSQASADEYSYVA
Sequence of ROC1-CUL2 (P62877 whole entry partner): as the sequence (P62877 whole entry partner) above
Sequence of ROC1-CUL4A (Q13619 39-759): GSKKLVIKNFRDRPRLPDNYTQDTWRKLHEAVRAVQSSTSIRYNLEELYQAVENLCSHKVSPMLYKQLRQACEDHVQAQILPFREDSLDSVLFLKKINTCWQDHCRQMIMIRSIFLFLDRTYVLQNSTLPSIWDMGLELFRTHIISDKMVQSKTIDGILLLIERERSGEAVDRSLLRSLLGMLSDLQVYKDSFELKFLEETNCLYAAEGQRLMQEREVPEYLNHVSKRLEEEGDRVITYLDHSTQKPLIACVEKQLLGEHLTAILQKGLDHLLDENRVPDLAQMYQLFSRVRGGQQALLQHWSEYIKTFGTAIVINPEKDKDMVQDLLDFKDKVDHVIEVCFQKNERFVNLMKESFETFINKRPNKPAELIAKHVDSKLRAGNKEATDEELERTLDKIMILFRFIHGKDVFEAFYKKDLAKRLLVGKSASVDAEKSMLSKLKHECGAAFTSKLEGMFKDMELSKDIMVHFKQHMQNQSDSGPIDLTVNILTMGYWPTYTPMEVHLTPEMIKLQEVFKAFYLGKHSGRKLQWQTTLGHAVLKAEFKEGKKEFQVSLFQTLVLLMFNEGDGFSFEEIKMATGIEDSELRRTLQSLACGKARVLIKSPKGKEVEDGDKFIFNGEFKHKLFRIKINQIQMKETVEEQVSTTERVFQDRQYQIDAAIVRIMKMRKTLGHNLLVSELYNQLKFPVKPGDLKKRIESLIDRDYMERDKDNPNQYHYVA
Sequence of ROC1-CUL4A (P62877 15-108 partner): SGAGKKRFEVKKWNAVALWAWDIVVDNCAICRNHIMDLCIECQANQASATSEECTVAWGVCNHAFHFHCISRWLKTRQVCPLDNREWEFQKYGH
Sequence of ROC1-CUL3 (Q13618 whole entry): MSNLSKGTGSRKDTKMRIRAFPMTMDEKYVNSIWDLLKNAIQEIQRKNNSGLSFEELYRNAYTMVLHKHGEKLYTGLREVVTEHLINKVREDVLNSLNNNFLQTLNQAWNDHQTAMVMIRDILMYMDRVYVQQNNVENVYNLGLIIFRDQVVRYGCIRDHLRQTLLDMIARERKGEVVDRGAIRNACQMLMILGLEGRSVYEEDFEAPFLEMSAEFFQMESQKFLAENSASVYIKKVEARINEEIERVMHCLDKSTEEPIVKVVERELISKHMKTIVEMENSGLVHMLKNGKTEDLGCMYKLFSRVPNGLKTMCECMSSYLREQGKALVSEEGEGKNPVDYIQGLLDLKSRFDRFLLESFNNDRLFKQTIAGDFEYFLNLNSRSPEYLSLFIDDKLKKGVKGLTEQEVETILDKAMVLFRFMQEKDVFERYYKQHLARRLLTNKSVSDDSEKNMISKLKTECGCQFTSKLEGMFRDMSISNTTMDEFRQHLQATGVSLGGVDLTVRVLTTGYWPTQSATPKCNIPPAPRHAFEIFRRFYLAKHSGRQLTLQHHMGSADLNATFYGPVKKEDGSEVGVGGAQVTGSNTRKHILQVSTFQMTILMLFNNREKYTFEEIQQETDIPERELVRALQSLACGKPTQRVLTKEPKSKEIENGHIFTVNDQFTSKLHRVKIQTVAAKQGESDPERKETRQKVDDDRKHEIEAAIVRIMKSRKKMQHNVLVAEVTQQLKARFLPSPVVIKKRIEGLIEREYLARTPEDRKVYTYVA
Sequence of ROC1-CUL3 (P62877 whole entry partner): as the sequence (P62877 whole entry partner) above

For the molecule `O=c1c(-c2cnn(-c3ccccc3)c2)c(C(F)(F)F)oc2c(O)c(O)ccc12` [#33-11, 7,8-dihydroxy-3-(1-phenyl-1H-pyrazol-4-yl)-2-(trifluoromethyl)-4H-chromen-4-one], the “level of di-Ub product” value at ROC1-CUL3 and at ROC1-CUL2 was “remained almost unchanged” in each case. On ROC1-CUL4A, the “E3 CRL4 Relative Inhibition” value is 37%. In addition, the necropsy findings result in series [1] (50 mg/kg) is on record as “no adverse effects”. For the same molecule, the body weight loss result in series [1] (50 mg/kg IP daily, 7 days) is on record as “no significant body weight loss”. Further, the 50% effective concentration (EC50) – broadly, the midpoint of the concentration-response curve – in the series with MV4-11 was ~13 µM; in the series with MOLT-4, ~5 µM; with ML-2, ~14 µM; in the series on HCT116, ~58 µM; in the series with H1299, ~81 µM; in the series on MDA-MB-231 it was > 100 µM. The EC50 in the series with K562 was ~54 µM; with U2OS, ~78 µM; in the series with NB-4, ~7 µM; in the series with THP-1, 14 µM.

As to `O=c1c(-c2cnn(-c3ccc(Cl)cc3)c2)c(C(F)(F)F)oc2c(O)c(O)ccc12` [KH-4-43, 3-(1-(4-chlorophenyl)-1H-pyrazol-4-yl)-7,8-dihydroxy-2-(trifluoromethyl)-4H-chromen-4-one], the “Liver microsomes: t1/2” value in [2] (Human) and in series [2] (Rat) was >500 min in each case. Also, the “dose range inhibiting ubiquitination by CRL1/SCF” value on CRL1/SCF is ~30 µM. For the same molecule, the concentration giving a half-maximal response (EC50) at E3 (CUL1) was 7 µM; with tumor cell lines it was ~2000 nM; on E3 (CUL4), 10 µM; in the series on MV4-11 cells, 3000 nM.

These data come from patent publication US20240174649A1, “CULLIN-RING E3 UBIQUITIN LIGASE 4 INHIBITOR COMPOUNDS AND METHODS OF THEIR USE” (ICAHN SCHOOL OF MEDICINE AT MOUNT SINAI, priority 2021, published 2024).
